What all share (experiment): NCI tumour cell line growth inhibition, 48 h
The subject of assay [1] is M14 melanoma.
In assay [2] the test system is SK-MEL-2 melanoma.
In assay [3] the test system is RPMI-8226 leukemia.
The subject of assay [4] is HOP-62 NSCLC.
Assay [5] relates to MDA-N.
Assay [6] has as its system 786-0 renal.
Assay [7] relates to RXF 393 renal.
Assay [8] relates to NCI-H23 lung.
In assay [9] the test system is UACC-257 melanoma.
In assay [10] the test system is MALME-3M melanoma.

Molecules are shown by their SMILES.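 Dose response: 5 concentrations. Exposure: 48 h. Format: 96-well plates. Endpoint: linear interpolation; highest concentration if not reached. TGI marks complete inhibition of growth.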

For the compound `O=C(O)c1ccc(S(=O)(=O)c2ccccc2[N+](=O)[O-])cc1`, the TGI in assay [1], in assay [2], in assay [3], in assay [4], in assay [5] and in assay [6] was greater than 10 µM throughout. The TGI in assay [7], in [8], in [9] and in assay [10] was greater than 10 µM in each case.
As for `CC(=O)O[C@H]1C#C/C=C\C#CC[C@@H]2C(=O)N[C@@H]12`, the TGI is greater than 100 µM in assay [1]; greater than 100 µM in assay [2]; greater than 78.1 µM in [3]; greater than 72.6 µM in assay [4]; greater than 100 µM in assay [5]; greater than 88.3 µM in assay [6]. In addition, the TGI in assay [7] was 73.3 µM; in assay [8], 60.9 µM; in assay [9], greater than 100 µM; in [10] it was greater than 100 µM.
Turning to `O=c1c2ncn(COCCCl)c2n(-c2ccccc2)c(=S)n1-c1ccccc1`, the TGI in [1], in [2], in assay [3], in assay [4], in assay [5] and in assay [6] was greater than 100 µM throughout. Further, the TGI in assay [7], in [8], in [9] and in assay [10] was greater than 100 µM in each case.
For the compound `CCn1nc2c3c(ncn3C(C)(C)O2)c1=O`, the TGI in [1], in assay [2], in assay [3], in assay [4], in [5] and in assay [6] was greater than 100 µM throughout. In addition, the TGI in assay [7], in assay [8], in [9] and in assay [10] was greater than 100 µM throughout.
On to `C=CCCC(=O)CC(O)(C(F)(F)F)C(F)(F)F`, for which the TGI in assay [1], in assay [2], in assay [3], in [5], in assay [6] and in [7] was greater than 100 µM throughout. Also, the TGI in assay [8], in assay [9] and in assay [10] was greater than 100 µM throughout.
With `C1CCC2C(C1)CCCC2NC1=NCCO1` (centres undefined), the TGI in assay [1], in assay [2], in assay [3], in [4], in assay [5] and in assay [6] was greater than 100 µM in each case. Further, the TGI in assay [7], in assay [8], in assay [9] and in assay [10] was greater than 100 µM throughout.
On to `COc1ccc(/C=N/N=C(\N)NO)c(O)c1`, for which the TGI in assay [1], in assay [2], in assay [3], in assay [4], in [5] and in assay [6] was greater than 10 µM each time. Moreover, the TGI in assay [7], in assay [8], in assay [9] and in [10] was greater than 10 µM in each case.
For the compound `NCCN=C(Nc1ccccc1)Nc1ccccc1`, the TGI in [1], in [2], in assay [3], in assay [4], in assay [5] and in [6] was greater than 100 µM in each case. Also, the TGI in assay [7], in assay [8], in assay [9] and in [10] was greater than 100 µM in each case.
Take `O=c1oc2ccccc2c(Nc2ccc3c(c2)Oc2ccccc2O3)c1[N+](=O)[O-]`: the TGI in assay [1] was greater than 100 µM; in [2], 34.5 µM; in [3], greater than 100 µM; in [4], greater than 100 µM; in assay [5] it was greater than 100 µM; in assay [6], 38.8 µM. Further, the TGI in [7] was 34.6 µM; in assay [8], 46.1 µM; in [9], 91.2 µM; in [10] it was 53.3 µM.
As for `NC(=O)NNC(=O)c1nc[nH]c1[N+](=O)[O-]`, the TGI in assay [1], in assay [2], in [3], in assay [4], in [5] and in [6] was greater than 100 µM each time. Besides, the TGI in assay [7], in assay [8], in assay [9] and in assay [10] was greater than 100 µM throughout.
With `CC1=NN(c2ccc(S(=O)(=O)O)cc2)C2(C1)SCC(=O)N2c1nc2ccccc2s1` (centres undefined), the TGI in assay [1], in assay [2], in [3], in assay [4], in assay [5] and in [6] was greater than 100 µM each time. Also, the TGI in [7], in assay [8], in [9] and in [10] was greater than 100 µM throughout.
As for `CC(=O)N1N=C(c2ccc3ccccc3c2O)CC1C(=O)c1ccco1` (centres undefined), the TGI in assay [1] is 57.7 µM; in assay [2], 52.8 µM; in [3], 85 µM; in assay [4], greater than 100 µM; in [5], greater than 100 µM; in [6], greater than 100 µM. Moreover, the TGI in assay [7], in assay [8], in assay [9] and in assay [10] was greater than 100 µM in each case.
Regarding `CC(=O)O[C@H]1CC[C@@]2(C)C(=CC[C@H]3[C@@H]4C[C@H](N5CCCC5)[C@H](OC(C)=O)[C@@]4(C)CC[C@@H]32)C1`, the TGI is 33.9 µM in [1]; greater than 100 µM in assay [2]; greater than 100 µM in [3]; greater than 100 µM in assay [4]; greater than 84.4 µM in [5]; greater than 100 µM in assay [6]. The TGI in assay [7] was greater than 100 µM; in assay [8], greater than 100 µM; in assay [9], greater than 68.2 µM; in assay [10] it was greater than 74.3 µM.
As for `CC1=NN2C(=N)/C(=C/c3ccco3)C(=O)N=C2S1`, the TGI in assay [1], in assay [2], in [3], in [4], in [5] and in assay [6] was greater than 100 µM each time. Further, the TGI in assay [7], in assay [8], in assay [9] and in [10] was greater than 100 µM in each case.
